# Test results taken from patent US7465729B2, “Methods of treatment of menopause and perimenopause using eszopiclone” (Sepracor Inc., priority 2004, dated 2008).
# Tests used:
# mice [1] = test: Antimuscarinic activity in vivo: mydriasis; conditions: any dose tested, maximum dose 100 mg/kg, p.o.
# Procedure: (§1) Eszopiclone was evaluated for antimuscarinic activity in vivo.
# [2] = system: benzodiazepine receptor complex; conditions: cited from earlier work
# mice [3] = test: Antimuscarinic activity in vivo: oxotremorine induced salivation; conditions: doses up to 300 mg/kg, p.o.
# Procedure: as §1
# conscious dogs = test: Dose escalation safety study, cardiovascular and respiratory parameters; conditions: acute intravenous, 3, 5 and 12 mg/kg
# Procedure: To establish the safety of eszopiclone, a dose escalation study was carried out. Cardiovascular and respiratory parameters were evaluated in conscious dogs following acute intravenous administration of (R)-, (S)- or racemic zopiclone at three doses (3, 5 and 12 mg/kg).
# plasma proteins = conditions: cited from earlier work
# [4] = in vivo; cited from earlier work
compound,measurement,setting,value
CN1CCN(C(=O)OC2c3nccnc3C(=O)N2c2ccc(Cl)cn2)CC1 (racemic) [racemic zopiclone],mydriasis,mice [1],did not produce mydriasis
same,binding to the benzodiazepine receptor complex,[2],"binds to the benzodiazepine receptor complex, or to a site linked closely to this receptor complex"
same,antagonism of oxotremorine induced salivation,mice [3],"neither (R)-, (S)-, nor racemic zopiclone significantly antagonized oxotremorine induced salivation"
same,"cardiotoxicity, as evidenced by the electrocardiogram (ECG)",conscious dogs,No evidence of cardiotoxicity
same,effect on blood pressure,conscious dogs,"dose dependent, transient decreases in blood pressure"
same,effect on heart rate,conscious dogs,compensatory increase in heart rate
same,"Blood gases and blood chemistries (pH, pCO2, pO2, hematocrit, and lactate)",conscious dogs; all dose groups,remained unaffected
same,binding to plasma proteins,plasma proteins,not highly bound
same,absorption from the stomach,[4],well absorbed
